Experimental findings from ChEMBL document CHEMBL1159262, “Bioactive diterpenoids from Octocorallia, 2. Deoxyxeniolide B, a novel ichthyotoxic diterpenoid from the soft coral Xenia elongata” (J Nat Prod, 1995) are described below.

The series concerns Oryzias latipes. The experiment in a line: Ichthyotoxicity against Oryzias latipes after 1 hr. The series is classed as organism-based. To be noted: in vivo.

`C=C1CC[C@@H]2O[C@@]2(C)CC[C@@H]2/C(=C\C=C\C(C)(C)O)COC(=O)[C@@H]12`: the Activity entry is reported as “Non-toxic”. For the compound `C=C1CC[C@@H]2O[C@@]2(C)CC[C@@H]2/C(=C\CC=C(C)C)COC(=O)[C@@H]12`, the Activity entry is “Non-toxic”.

`C=C1CC/C=C(\C)CC[C@@H]2/C(=C\CC=C(C)C)COC(=O)[C@@H]12` [DEOXYXENIOLIDE B] registered an LC100 of 15 ppm.
